US20260263456A1, “TADALAFIL GASTRIC-SOLUBLE RAPID-RELEASE SOLID DISPERSION, TABLET, AND USE THEREOF” (Shenzhen Hanhui Pharmaceutical Technology Co., Ltd., priority 2023, published 2026)
In brackets after ≈: the same amount, converted by molar mass.

Columns and labels:
[1] = Polymer and surfactant screening: solubility of solid dispersions in pH 1.0 and pH 6.8 media; type: physicochemical; settings: API alone, 2 mg/mL, one value across 5 min and 30 min
Experimental: In this implementation example, a micro-scale rotary evaporation method was employed to screen various types of polymers and surfactants, specifically in the context of the active pharmaceutical ingredient (API) ratio of polymer to surfactant.
Acetone was utilized to prepare a stock solution of the active pharmaceutical ingredient at a concentration of 5 mg/mL, a polymer stock solution at 10 mg/mL, and a surfactant stock solution at 10 mg/mL. These solutions were evenly mixed in two identical portions, then centrifuged and dried to create the solid dispersion.
To each sample tube, 1 mL of pH 1.0 and pH 6.8 media was added, and the samples were vortexed at room temperature to ensure complete dispersion. Samples were collected at 5 minutes and 30 minutes, then centrifuged, diluted, and the absorbance was measured to calculate solubility.

[2] = Solubility of tadalafil API in various solvents; type: physicochemical; settings: thermodynamic from solid, 25° C. and 60° C.
Source text: A suitable amount of tadalafil was weighed and dissolved in various commonly used organic solvents to identify the most appropriate solvents for establishing UV methodology. The solvents utilized for preparing solid dispersions, along with the solubility of tadalafil, the active pharmaceutical ingredient, in different solvents, are presented in Table 4 below.

pH 1.0(Solubility mg/mL) ([1]; pH 1.0): 0.002 mg/mL
pH 6.8(Solubility mg/mL) ([1]; pH 6.8): 0.027 mg/mL
solubility ([2]; organic solvent or mixture, Acetone): 10.2 to 16.9 mg/mL (≈ 26.1 to 43.5 mM)
solubility ([2]; organic solvent or mixture, Acetonitrile): 16 to 23.9 mg/mL (≈ 41 to 61.5 mM)
solubility ([2]; organic solvent or mixture, Anhydrous ethanol): < 10.8 mg/mL
solubility ([2]; organic solvent or mixture, Dichloromethane): < 10.8 mg/mL
solubility ([2]; organic solvent or mixture, Tetrahydrofuran): 23.8 to 47.6 mg/mL (≈ 61.2 to 122 mM)
solubility ([2]; pH 6.8 medium, aqueous buffer, pH 6.8): < 8.04 mg/mL
Structure (SMILES): CN1CC(=O)N2[C@H](c3ccc4c(c3)OCO4)c3[nH]c4ccccc4c3C[C@@H]2C1=O [Tadalafil]
